Assay results reported in ChEMBL document CHEMBL1201861, “Genomics of Drug Sensitity in Cancer screening data, Wellcome Trust Sanger Institute”.

Tests used:
Assay in all cases: cells
Assay type in all cases: functional, cell-based, Homo sapiens
[1] = test system: PF-382; settings: Homo sapiens, PF-382
Description: SANGER: Inhibition of human PF-382 cell growth in a cell viability assay.

[2] = test system: TE-15; settings: Homo sapiens, TE-15;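 also: cell viability readout of growth inhibition in TE-15 cells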
Description: SANGER: Inhibition of human TE-15 cell growth in a cell viability assay.

[3] = test system: NCI-H2141; settings: Homo sapiens, NCI-H2141;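 also: growth inhibition of human NCI-H2141 cells, read out with a cell viability assay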
Description: SANGER: Inhibition of human NCI-H2141 cell growth in a cell viability assay.

[4] = test system: Daudi; settings: Homo sapiens, Daudi;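 also: growth inhibition of Daudi cells, read out by a viability assay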
Description: SANGER: Inhibition of human Daudi cell growth in a cell viability assay.

[5] = test system: EVSA-T; settings: Homo sapiens, EVSA-T;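 also: growth inhibition of EVSA-T cells, read out with a cell viability assay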
Description: SANGER: Inhibition of human EVSA-T cell growth in a cell viability assay.

[6] = test system: OPM-2; settings: Homo sapiens, OPM-2;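 also: growth of OPM-2 cells measured with a viability assay, IC50 for suppression of proliferation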
Description: SANGER: Inhibition of human OPM-2 cell growth in a cell viability assay.

[7] = test system: GDM-1; settings: Homo sapiens, GDM-1;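 also: cell viability readout used to measure growth inhibition of human GDM-1 cells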
Description: SANGER: Inhibition of human GDM-1 cell growth in a cell viability assay.

[8] = test system: Kasumi 1; settings: Homo sapiens, Kasumi 1;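 also: growth inhibition of human Kasumi-1 cells, read out by a cell viability assay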
Description: SANGER: Inhibition of human KASUMI-1 cell growth in a cell viability assay.

[9] = test system: NCI-H1436; settings: Homo sapiens, NCI-H1436;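 also: growth suppression of human NCI-H1436 cells, determined with a cell viability readout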
Description: SANGER: Inhibition of human NCI-H1436 cell growth in a cell viability assay.

[10] = test system: EHEB; settings: Homo sapiens, EHEB;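 also: growth inhibition of human EHEB cells, read out with a cell viability assay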
Description: SANGER: Inhibition of human EHEB cell growth in a cell viability assay.

[11] = test system: BOKU; settings: Homo sapiens, BOKU;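 also: growth inhibition of the human BOKU cell line, read out by a cell viability assay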
Description: SANGER: Inhibition of human BOKU cell growth in a cell viability assay.

[12] = test system: HGC-27; settings: Homo sapiens, HGC-27;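 also: growth inhibition of human HGC-27 cells, read out in a cell viability assay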
Description: SANGER: Inhibition of human HGC-27 cell growth in a cell viability assay.

[13] = test system: NCI-H1703; settings: Homo sapiens, NCI-H1703;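 also: growth inhibition of NCI-H1703 cells, read out via a cell viability assay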
Description: SANGER: Inhibition of human NCI-H1703 cell growth in a cell viability assay.

[14] = test system: NCI-H727; settings: Homo sapiens, NCI-H727;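 also: growth inhibition of human NCI-H727 cells, read out with a cell viability assay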
Description: SANGER: Inhibition of human NCI-H727 cell growth in a cell viability assay.

[15] = test system: ChaGo-K-1; settings: Homo sapiens, ChaGo-K-1;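 also: growth inhibition of ChaGo-K-1 cells, read out with a cell viability assay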
Description: SANGER: Inhibition of human ChaGo-K-1 cell growth in a cell viability assay.

[16] = test system: AN3-CA; settings: Homo sapiens, AN3-CA;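 also: growth inhibition of human AN3-CA cells measured by a cell viability assay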
Description: SANGER: Inhibition of human AN3-CA cell growth in a cell viability assay.

[17] = test system: 5637; settings: Homo sapiens
Description: SANGER: Inhibition of human 5637 cell growth in a cell viability assay.

[18] = test system: JEG-3; settings: Homo sapiens, JEG-3;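 also: growth inhibition of human JEG-3 cells, read out with a cell viability assay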
Description: SANGER: Inhibition of human JEG-3 cell growth in a cell viability assay.

[19] = test system: NCI-H2347; settings: Homo sapiens, NCI-H2347;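 also: growth inhibition of the cell line, read out with a cell viability assay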
Description: SANGER: Inhibition of human NCI-H2347 cell growth in a cell viability assay.

[20] = test system: UMUC3; settings: Homo sapiens, UMUC3;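 also: growth inhibition of human UM-UC-3 cells, read out with a cell viability assay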
Description: SANGER: Inhibition of human UM-UC-3 cell growth in a cell viability assay.

[21] = test system: SW756; settings: Homo sapiens, SW756;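 also: growth inhibition of human SW756 cells, read out with a cell viability assay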
Description: SANGER: Inhibition of human SW756 cell growth in a cell viability assay.

[22] = test system: UACC-893; settings: Homo sapiens, UACC-893
Description: SANGER: Inhibition of human UACC-893 cell growth in a cell viability assay.

[23] = test system: PANC-03-27; settings: Homo sapiens, PANC-03-27
Description: SANGER: Inhibition of human PANC-03-27 cell growth in a cell viability assay.

[24] = test system: Hs-578T; settings: Homo sapiens, Hs-578T
Description: SANGER: Inhibition of human Hs-578-T cell growth in a cell viability assay.

[25] = test system: NCI-H1651; settings: Homo sapiens, NCI-H1651;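 also: Read-out is a cell viability assay, with IC50 expressing inhibition of NCI-H1651 cell growth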
Description: SANGER: Inhibition of human NCI-H1651 cell growth in a cell viability assay.

[26] = test system: Ca9-22; settings: Homo sapiens, Ca9-22;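 also: growth inhibition of Ca9-22 cells, read out with a cell viability assay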
Description: SANGER: Inhibition of human Ca9-22 cell growth in a cell viability assay.

[27] = test system: SCC-25; settings: Homo sapiens, SCC-25;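 also: growth inhibition of SCC-25 cells, measured with a cell viability assay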
Description: SANGER: Inhibition of human SCC-25 cell growth in a cell viability assay.

[28] = test system: HCC1806; settings: Homo sapiens, HCC1806;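 also: growth inhibition of the cancer cell line, determined with a cell viability assay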
Description: SANGER: Inhibition of human HCC1806 cell growth in a cell viability assay.

[29] = test system: CAKI-1; settings: Homo sapiens, CAKI-1;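 also: growth inhibition of CAKI-1 cells, measured by a cell viability assay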
Description: SANGER: Inhibition of human CAKI-1 cell growth in a cell viability assay.

[30] = test system: T-24; settings: Homo sapiens, T-24;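 also: growth inhibition of T-24 cells, read out with a cell viability assay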
Description: SANGER: Inhibition of human T-24 cell growth in a cell viability assay.

[31] = test system: Detroit 562; settings: Homo sapiens, Detroit 562;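 also: growth inhibition of human Detroit 562 cells, read out by a cell viability assay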
Description: SANGER: Inhibition of human Detroit562 cell growth in a cell viability assay.

[32] = test system: NCI-H1437; settings: Homo sapiens, NCI-H1437;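 also: growth inhibition of human NCI-H1437 cells, read out by a cell viability assay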
Description: SANGER: Inhibition of human NCI-H1437 cell growth in a cell viability assay.

[33] = test system: LK-2; settings: Homo sapiens, LK-2;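 also: growth inhibition of LK-2 cells, read out with a viability assay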
Description: SANGER: Inhibition of human LK-2 cell growth in a cell viability assay.

[34] = test system: COLO-679; settings: Homo sapiens, COLO-679
Description: SANGER: Inhibition of human COLO-679 cell growth in a cell viability assay.

[35] = test system: KYSE-450; settings: Homo sapiens, KYSE-450;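 also: cell growth inhibition measured by a viability assay in human KYSE-450 cells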
Description: SANGER: Inhibition of human KYSE-450 cell growth in a cell viability assay.

[36] = test system: HSC-2; settings: Homo sapiens, HSC-2;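 also: growth inhibition of human HSC-2 cells, read out by a cell viability assay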
Description: SANGER: Inhibition of human HSC-2 cell growth in a cell viability assay.

[37] = test system: RO82-W-1; settings: Homo sapiens, RO82-W-1;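 also: growth inhibition of human RO82-W-1 cells, measured with a cell viability assay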
Description: SANGER: Inhibition of human RO82-W-1 cell growth in a cell viability assay.

[38] = test system: MCF7; settings: Homo sapiens, MCF7;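 also: growth inhibition of human MCF7 cells, read out with a cell viability assay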
Description: SANGER: Inhibition of human MCF7 cell growth in a cell viability assay.

[39] = test system: 8505C; settings: Homo sapiens, 8505C
Description: SANGER: Inhibition of human 8505C cell growth in a cell viability assay.

[40] = test system: DMS-273; settings: Homo sapiens, DMS-273
Description: SANGER: Inhibition of human DMS-273 cell growth in a cell viability assay.

[41] = test system: NCI-H661; settings: Homo sapiens, NCI-H661;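 also: cell viability assay read-out, IC50 being the concentration that inhibits growth of the cells by half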
Description: SANGER: Inhibition of human NCI-H661 cell growth in a cell viability assay.

[42] = test system: NCI-H596; settings: Homo sapiens, NCI-H596;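 also: growth inhibition of NCI-H596 cells, read out with a cell viability assay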
Description: SANGER: Inhibition of human NCI-H596 cell growth in a cell viability assay.

[43] = test system: PFSK-1; settings: Homo sapiens, PFSK-1;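 also: cell viability assay measuring how strongly compounds suppress growth of human PFSK-1 cells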
Description: SANGER: Inhibition of human PFSK-1 cell growth in a cell viability assay.

[44] = test system: SW626; settings: Homo sapiens, SW626;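 also: growth inhibition of SW626 cells, measured with a cell viability assay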
Description: SANGER: Inhibition of human SW626 cell growth in a cell viability assay.

[45] = test system: KYSE-70 cell line; settings: Homo sapiens, KYSE-70;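 also: cell viability assay read-out, with IC50 expressing suppression of KYSE-70 cell growth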
Description: SANGER: Inhibition of human KYSE-70 cell growth in a cell viability assay.

[46] = test system: HuP-T3; settings: Homo sapiens, HuP-T3;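 also: HuP-T3 cell growth inhibition, read out with a cell viability assay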
Description: SANGER: Inhibition of human HuP-T3 cell growth in a cell viability assay.

COc1cc(N2CCN(C)CC2)ccc1Nc1ncc2c(n1)N(C)c1ccccc1C(=O)N2C
IC50 [1]: 4940 nM | IC50 [2]: > 8000 nM | IC50 [3]: > 8000 nM | IC50 [4]: > 8000 nM | IC50 [5]: > 8000 nM | IC50 [6]: 3300 nM | IC50 [7]: > 8000 nM | IC50 [8]: > 8000 nM | IC50 [9]: > 8000 nM

OCCCNc1cc(-c2ccnc(Nc3cccc(Cl)c3)n2)ccn1
IC50 [1]: 104 nM | IC50 [2]: 39.4 nM | IC50 [3]: 102 nM | IC50 [4]: 55.3 nM | IC50 [10]: 191 nM | IC50 [11]: 54.3 nM | IC50 [5]: 135 nM | IC50 [6]: 153 nM | IC50 [7]: > 256 nM | IC50 [8]: > 256 nM | IC50 [9]: 251 nM

C#Cc1cccc(Nc2ncnc3cc(OCCOC)c(OCCOC)cc23)c1 [ERLOTINIB]
IC50 [1]: > 2000 nM | IC50 [2]: > 2000 nM | IC50 [3]: > 2000 nM | IC50 [4]: > 2000 nM | IC50 [10]: > 2000 nM | IC50 [5]: > 2000 nM | IC50 [6]: > 2000 nM | IC50 [7]: > 2000 nM | IC50 [8]: > 2000 nM

Nc1ccn([C@@H]2O[C@H](CO)[C@@H](O)C2(F)F)c(=O)n1 [GEMCITABINE]
IC50 [12]: 9.6 nM | IC50 [13]: 31.8 nM | IC50 [14]: 2.51 nM | IC50 [1]: 44.2 nM | IC50 [15]: 696 nM | IC50 [16]: 203 nM | IC50 [17]: > 1020 nM | IC50 [18]: 277 nM | IC50 [19]: 792 nM | IC50 [2]: < 4 nM | IC50 [20]: 16.2 nM | IC50 [21]: 45.1 nM | IC50 [3]: 644 nM | IC50 [22]: > 1020 nM | IC50 [23]: 3.51 nM | IC50 [24]: > 1020 nM | IC50 [25]: 21.1 nM | IC50 [26]: 1.54 nM | IC50 [4]: 569 nM | IC50 [27]: 289 nM | IC50 [28]: 2.91 nM | IC50 [10]: 227 nM | IC50 [11]: 254 nM | IC50 [29]: > 1020 nM | IC50 [5]: > 1020 nM | IC50 [30]: > 1020 nM | IC50 [31]: 10.4 nM | IC50 [32]: 9.42 nM | IC50 [6]: > 1020 nM | IC50 [7]: 62.5 nM | IC50 [33]: > 1020 nM | IC50 [34]: 10.1 nM | IC50 [35]: 6.32 nM | IC50 [36]: 3.03 nM | IC50 [37]: > 1020 nM | IC50 [38]: < 4 nM | IC50 [39]: 1.06 nM | IC50 [40]: 3.07 nM | IC50 [41]: 104 nM | IC50 [42]: 225 nM | IC50 [43]: > 1020 nM | IC50 [44]: 4.46 nM | IC50 [45]: 300 nM | IC50 [9]: > 1020 nM | IC50 [46]: 146 nM
